Test results: paper PMC7206119, “RIP1 inhibition blocks inflammatory diseases but not tumor growth or metastases” (Cell Death and Differentiation, 2019)

Tests used:
Assay in all cases: biochemical
Design in all cases: DiscoverX kinase panel, active-site competition binding (KINOMEscan type), percent of control at one concentration
Conditions in all cases: competition binding, percent of control
EPHB3 = EPHB3 (Homo sapiens, UniProt P54753)
[1] = target: T1, RSK3(Kin.Dom.2-C-terminal) (Homo sapiens, UniProt Q15349)
T1 construct: gene RPS6KA2; Kin.Dom.2-C-terminal
T1 sequence (Q15349 whole entry): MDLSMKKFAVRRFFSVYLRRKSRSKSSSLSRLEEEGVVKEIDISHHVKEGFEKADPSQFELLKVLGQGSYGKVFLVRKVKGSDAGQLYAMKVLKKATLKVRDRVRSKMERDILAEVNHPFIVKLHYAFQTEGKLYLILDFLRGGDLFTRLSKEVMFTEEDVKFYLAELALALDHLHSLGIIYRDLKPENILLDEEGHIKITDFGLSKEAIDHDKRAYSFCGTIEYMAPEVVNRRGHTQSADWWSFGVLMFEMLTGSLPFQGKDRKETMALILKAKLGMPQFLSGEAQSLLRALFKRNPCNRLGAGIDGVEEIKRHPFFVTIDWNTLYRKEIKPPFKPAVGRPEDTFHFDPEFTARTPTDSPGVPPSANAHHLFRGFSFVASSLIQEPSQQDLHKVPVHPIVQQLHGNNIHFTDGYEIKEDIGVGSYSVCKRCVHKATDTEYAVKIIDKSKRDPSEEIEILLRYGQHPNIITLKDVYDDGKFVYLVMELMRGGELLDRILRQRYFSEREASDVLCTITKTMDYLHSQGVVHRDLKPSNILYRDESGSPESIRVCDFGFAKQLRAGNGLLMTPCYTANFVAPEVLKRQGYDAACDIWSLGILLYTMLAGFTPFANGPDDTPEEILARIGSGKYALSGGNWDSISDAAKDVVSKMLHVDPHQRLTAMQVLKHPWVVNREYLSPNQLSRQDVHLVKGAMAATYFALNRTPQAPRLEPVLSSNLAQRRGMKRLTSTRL

MTOR = MTOR (Homo sapiens, UniProt P42345)
ERK2 = target: T2, ERK2 (Homo sapiens, UniProt P28482)
T2 construct: gene MAPK1
T2 sequence (P28482 whole entry): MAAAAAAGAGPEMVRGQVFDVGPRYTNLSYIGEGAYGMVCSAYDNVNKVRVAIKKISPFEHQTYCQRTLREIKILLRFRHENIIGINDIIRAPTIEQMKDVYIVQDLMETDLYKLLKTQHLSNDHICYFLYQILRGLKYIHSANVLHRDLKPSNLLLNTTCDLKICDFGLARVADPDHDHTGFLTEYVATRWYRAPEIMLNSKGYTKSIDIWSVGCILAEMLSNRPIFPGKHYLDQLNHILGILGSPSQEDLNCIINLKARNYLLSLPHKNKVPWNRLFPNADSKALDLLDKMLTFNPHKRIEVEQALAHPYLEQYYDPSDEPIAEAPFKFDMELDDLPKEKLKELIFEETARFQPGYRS

DCAMKL3 = target: T3, DCAMKL3 (Homo sapiens, UniProt Q9C098)
T3 construct: gene DCLK3
T3 sequence (Q9C098 whole entry): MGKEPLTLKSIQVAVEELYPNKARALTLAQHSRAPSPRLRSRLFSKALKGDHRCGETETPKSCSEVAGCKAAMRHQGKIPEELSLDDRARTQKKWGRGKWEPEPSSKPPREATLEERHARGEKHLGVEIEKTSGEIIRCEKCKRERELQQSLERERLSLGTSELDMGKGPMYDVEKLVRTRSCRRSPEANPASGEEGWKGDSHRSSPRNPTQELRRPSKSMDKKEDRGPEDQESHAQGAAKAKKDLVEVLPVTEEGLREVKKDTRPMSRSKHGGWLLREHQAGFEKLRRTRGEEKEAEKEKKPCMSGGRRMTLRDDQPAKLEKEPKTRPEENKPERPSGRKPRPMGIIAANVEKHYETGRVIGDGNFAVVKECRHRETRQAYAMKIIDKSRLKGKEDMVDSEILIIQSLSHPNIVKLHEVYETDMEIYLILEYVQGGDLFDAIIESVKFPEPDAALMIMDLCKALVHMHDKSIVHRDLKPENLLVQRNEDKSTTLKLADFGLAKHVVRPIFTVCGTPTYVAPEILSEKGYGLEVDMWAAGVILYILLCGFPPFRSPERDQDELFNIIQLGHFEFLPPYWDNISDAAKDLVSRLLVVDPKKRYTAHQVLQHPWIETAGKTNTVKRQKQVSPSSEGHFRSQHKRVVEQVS

MARK2 = MARK2 (Homo sapiens, UniProt Q7KZI7)
Sequence of MARK2 (Q7KZI7 whole entry): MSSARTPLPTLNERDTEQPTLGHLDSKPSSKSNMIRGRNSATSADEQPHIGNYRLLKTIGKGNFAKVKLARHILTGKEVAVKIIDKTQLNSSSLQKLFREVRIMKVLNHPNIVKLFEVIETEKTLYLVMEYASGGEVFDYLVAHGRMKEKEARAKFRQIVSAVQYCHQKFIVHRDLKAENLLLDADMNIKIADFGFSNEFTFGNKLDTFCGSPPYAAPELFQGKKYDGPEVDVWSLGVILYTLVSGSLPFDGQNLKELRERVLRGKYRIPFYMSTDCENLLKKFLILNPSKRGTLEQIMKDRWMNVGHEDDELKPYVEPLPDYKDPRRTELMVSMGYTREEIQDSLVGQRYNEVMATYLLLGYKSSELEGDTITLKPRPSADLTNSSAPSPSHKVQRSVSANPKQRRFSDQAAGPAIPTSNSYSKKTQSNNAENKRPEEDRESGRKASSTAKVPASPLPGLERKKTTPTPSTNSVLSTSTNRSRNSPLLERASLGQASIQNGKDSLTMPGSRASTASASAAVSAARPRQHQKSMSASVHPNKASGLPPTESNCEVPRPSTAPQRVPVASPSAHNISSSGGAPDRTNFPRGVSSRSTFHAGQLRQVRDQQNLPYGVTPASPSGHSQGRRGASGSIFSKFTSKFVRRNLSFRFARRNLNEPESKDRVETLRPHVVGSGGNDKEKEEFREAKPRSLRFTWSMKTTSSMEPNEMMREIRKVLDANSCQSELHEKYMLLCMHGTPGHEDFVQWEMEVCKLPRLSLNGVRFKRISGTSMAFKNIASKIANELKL

PLK4 = PLK4 (Homo sapiens, UniProt O00444)
FLT3(N841I) = FLT3(N841I) (Homo sapiens, UniProt P36888, N841I)
AXL = AXL (Homo sapiens, UniProt P30530)
SYK = SYK (Homo sapiens, UniProt P43405)
MAP3K2 = MAP3K2 (Homo sapiens, UniProt Q9Y2U5)
CLK4 = CLK4 (Homo sapiens, UniProt Q9HAZ1)
Sequence of CLK4 (Q9HAZ1 whole entry): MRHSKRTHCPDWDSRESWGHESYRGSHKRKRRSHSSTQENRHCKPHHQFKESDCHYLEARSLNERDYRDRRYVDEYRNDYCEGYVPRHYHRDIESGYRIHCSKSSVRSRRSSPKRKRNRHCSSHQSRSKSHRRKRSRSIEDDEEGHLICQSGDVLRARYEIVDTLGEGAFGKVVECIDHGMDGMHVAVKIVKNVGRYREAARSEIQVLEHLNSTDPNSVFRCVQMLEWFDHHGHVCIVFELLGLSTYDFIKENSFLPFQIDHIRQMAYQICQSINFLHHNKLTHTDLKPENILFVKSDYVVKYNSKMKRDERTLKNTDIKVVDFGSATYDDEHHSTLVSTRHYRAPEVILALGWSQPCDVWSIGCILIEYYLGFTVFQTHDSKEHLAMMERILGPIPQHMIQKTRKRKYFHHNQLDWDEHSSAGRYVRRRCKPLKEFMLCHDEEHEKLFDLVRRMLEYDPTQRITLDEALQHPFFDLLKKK

TRKC = target: T4, TRKC (Homo sapiens, UniProt Q16288)
T4 construct: gene NTRK3
T4 sequence (Q16288 whole entry): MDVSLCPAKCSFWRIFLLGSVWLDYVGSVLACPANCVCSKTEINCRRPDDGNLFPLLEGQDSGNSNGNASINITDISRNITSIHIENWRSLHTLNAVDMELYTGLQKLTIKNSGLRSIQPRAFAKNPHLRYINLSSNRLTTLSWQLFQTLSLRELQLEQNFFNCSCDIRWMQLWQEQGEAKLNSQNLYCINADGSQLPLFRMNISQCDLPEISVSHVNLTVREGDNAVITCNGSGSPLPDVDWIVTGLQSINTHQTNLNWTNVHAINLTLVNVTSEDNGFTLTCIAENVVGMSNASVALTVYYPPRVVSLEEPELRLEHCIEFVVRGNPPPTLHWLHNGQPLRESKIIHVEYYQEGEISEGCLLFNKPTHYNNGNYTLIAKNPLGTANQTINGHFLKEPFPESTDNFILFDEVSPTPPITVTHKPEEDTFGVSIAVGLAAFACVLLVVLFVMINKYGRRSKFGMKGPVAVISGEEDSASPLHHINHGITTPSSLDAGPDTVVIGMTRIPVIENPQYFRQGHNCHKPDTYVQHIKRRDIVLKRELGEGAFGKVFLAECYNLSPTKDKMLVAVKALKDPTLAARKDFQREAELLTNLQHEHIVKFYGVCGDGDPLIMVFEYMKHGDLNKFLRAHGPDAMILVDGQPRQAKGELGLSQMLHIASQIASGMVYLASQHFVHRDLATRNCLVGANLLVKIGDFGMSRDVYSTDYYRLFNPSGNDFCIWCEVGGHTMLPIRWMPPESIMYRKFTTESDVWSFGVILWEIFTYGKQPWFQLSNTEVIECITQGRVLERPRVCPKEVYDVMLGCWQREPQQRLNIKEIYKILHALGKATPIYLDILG

RIOK1 = RIOK1 (Homo sapiens, UniProt Q9BRS2)
Sequence of RIOK1 (Q9BRS2 whole entry): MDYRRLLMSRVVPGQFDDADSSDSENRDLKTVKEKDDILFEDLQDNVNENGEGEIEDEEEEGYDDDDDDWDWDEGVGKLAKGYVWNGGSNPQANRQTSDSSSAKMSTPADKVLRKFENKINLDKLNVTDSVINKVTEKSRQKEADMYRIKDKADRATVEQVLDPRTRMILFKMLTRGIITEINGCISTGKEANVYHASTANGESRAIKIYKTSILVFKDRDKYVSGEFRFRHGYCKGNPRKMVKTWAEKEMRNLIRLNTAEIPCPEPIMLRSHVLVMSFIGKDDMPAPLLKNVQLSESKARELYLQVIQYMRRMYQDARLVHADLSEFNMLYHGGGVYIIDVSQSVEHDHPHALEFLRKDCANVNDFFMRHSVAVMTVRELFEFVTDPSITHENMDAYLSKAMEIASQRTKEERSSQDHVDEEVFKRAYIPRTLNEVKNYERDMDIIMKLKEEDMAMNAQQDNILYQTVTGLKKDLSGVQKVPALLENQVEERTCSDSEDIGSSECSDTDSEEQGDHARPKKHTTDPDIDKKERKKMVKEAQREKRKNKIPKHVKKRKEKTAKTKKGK

MKK7 = target: T5, MKK7 (Homo sapiens, UniProt O14733)
T5 construct: gene MAP2K7

EPHA4 = EPHA4 (Homo sapiens, UniProt P54764)
PIK3CB = PIK3CB (Homo sapiens, UniProt P42338)
NIM1 = target: T6, NIM1 (Homo sapiens, UniProt Q8IY84)
T6 construct: gene NIM1K
T6 sequence (Q8IY84 whole entry): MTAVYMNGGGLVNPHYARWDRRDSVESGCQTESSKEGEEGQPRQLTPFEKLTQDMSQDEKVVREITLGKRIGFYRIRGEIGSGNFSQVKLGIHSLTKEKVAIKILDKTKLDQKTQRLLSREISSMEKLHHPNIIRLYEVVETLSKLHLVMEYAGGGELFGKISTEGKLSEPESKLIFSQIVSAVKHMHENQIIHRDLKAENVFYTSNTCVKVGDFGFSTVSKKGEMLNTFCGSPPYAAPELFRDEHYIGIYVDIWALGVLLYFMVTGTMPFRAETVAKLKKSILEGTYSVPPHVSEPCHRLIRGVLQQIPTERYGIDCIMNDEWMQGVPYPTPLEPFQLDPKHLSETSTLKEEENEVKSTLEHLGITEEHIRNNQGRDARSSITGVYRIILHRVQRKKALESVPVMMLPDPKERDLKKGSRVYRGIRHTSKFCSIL

NIK = target: T7, NIK (Homo sapiens, UniProt Q99558)
T7 construct: gene MAP3K14

MYO3B = MYO3B (Homo sapiens, UniProt Q8WXR4)
WNK1 = WNK1 (Homo sapiens, UniProt Q9H4A3)

## COc1cc2c(cn1)N(C)C(=O)[C@@H](NC(=O)c1nc3n(n1)[C@H](c1ccccc1)CC3)CC2 [GNE684, (S)-N-((S)-7-methoxy-1-methyl-2-oxo-2,3,4,5-tetrahydro-1H-pyrido[3,4-b]azepin-3-yl)-5-phenyl-6,7-dihydro-5H-pyrrolo[1,2-b][1,2,4]triazole-2-carboxamide]
EPHB3
  remaining binding at 10 µM: 100%
[1]
  remaining binding at 10 µM: 98%
MTOR
  remaining binding at 10 µM: 100%
ERK2
  remaining binding at 10 µM: 100%
DCAMKL3
  remaining binding at 10 µM: 92%
MARK2
  remaining binding at 10 µM: 100%
PLK4
  remaining binding at 10 µM: 95%
FLT3(N841I)
  remaining binding at 10 µM: 100%
AXL
  remaining binding at 10 µM: 96%
SYK
  remaining binding at 10 µM: 75%
MAP3K2
  remaining binding at 10 µM: 76%
CLK4
  remaining binding at 10 µM: 95%
TRKC
  remaining binding at 10 µM: 69%
RIOK1
  remaining binding at 10 µM: 84%
MKK7
  remaining binding at 10 µM: 98%
EPHA4
  remaining binding at 10 µM: 94%
PIK3CB
  remaining binding at 10 µM: 100%
NIM1
  remaining binding at 10 µM: 89%
NIK
  remaining binding at 10 µM: 100%
MYO3B
  remaining binding at 10 µM: 89%
WNK1
  remaining binding at 10 µM: 100%
